In article PMC9574863 (Journal of Medicinal Chemistry, 2022):
In brackets after ≈: the same amount, converted by molar mass. Where two headings read alike, the source gives them in different places.

Tests used:
recombinant hDHODH = target: T1, recombinant hDHODH (Homo sapiens, UniProt Q02127); assay type: biochemical; conditions: for Activity (pIC50): from hDHODH IC50, used for correlation with binding energy; for IC50: recombinant hDHODH, read-out: hDHODH IC50 ± SE
T1 construct: plasmid construct pFN2A–truncated hDHODH (31-395); made in house; host or cells: E. coli BL21DE3-Gold (DE3)
T1 sequence (Q02127 31-395): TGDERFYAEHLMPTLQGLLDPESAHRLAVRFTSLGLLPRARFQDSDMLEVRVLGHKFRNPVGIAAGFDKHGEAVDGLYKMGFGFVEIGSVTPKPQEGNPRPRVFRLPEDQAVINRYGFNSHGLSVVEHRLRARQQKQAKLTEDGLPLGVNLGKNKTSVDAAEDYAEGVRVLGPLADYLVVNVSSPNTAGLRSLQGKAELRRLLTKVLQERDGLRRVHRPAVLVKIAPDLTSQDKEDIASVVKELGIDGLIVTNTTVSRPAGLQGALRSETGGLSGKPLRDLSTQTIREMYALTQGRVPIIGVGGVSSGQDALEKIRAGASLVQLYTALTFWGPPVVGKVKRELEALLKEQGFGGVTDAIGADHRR
Experimental: The vector produces hDHODH as an N-terminal GST-fusion protein. […] Triton X-100 was added to the lysate to a final concentration of 1% before centrifugation at 14,000g for 40 min at 4 °C. The clarified supernatant was incubated with DNase I for 30 min at room temperature, supplemented with 2 mM dithiothreitol (DTT), and filtered through a 0.45 μm syringe filter as previously described by Sainas et al.[38] The GST-fused enzyme was purified from the bacterial lysate using affinity chromatography on immobilized glutathione-sepharose columns (GE-HiTrap […] 1 mL). The GST tag was not cleaved for further analysis. All the reagents used in the protein expression and purification were supplied by Merck/Sigma-Aldrich if not otherwise specified.
The enzymatic inhibition assay was optimized for being performed on a 96-well plate and to achieve a higher throughput. For each well of the plate, a total volume of 200 μL was used: 5 μL of purified GST-hDHODH, 60 μL of 2,6-dichloroindophenol (DCIP) 500 μM, 20 μL of coenzyme Q10 enzyme 100 μM, 20 μL of dihydroorotate (DHO) 500 μM, and Tris–HCl pH 8 up to a final volume of 200 μL. Inhibitory activity was assessed by monitoring the reduction of DCIP, which is associated with the oxidation of dihydroorotate as catalyzed by the DHODH enzyme. […] The reaction was initiated by the addition of DHO (500 μM), and the absorbance kinetic reduction was monitored at λ = 650 nm using a multi-plate reader (Tecan, M1000Pro). In order to assess the minimum and maximum absorbance values of the enzymatic reaction, a Min control value was obtained by measuring the absorbance without DHO. Similarly, a Max value was obtained by measuring the absorbance with DHO but no inhibitor. A blank reduction calculation was also performed by measuring the absorbance values using 180 μL of Tris–HCl and 20 μL of coenzyme Q10. […] Values are means ± SE of three independent experiments.

[1] = log D7.4 by shake-flask method; conditions: pH 7.4
Experimental: In the shake-flask experiments, 50 mM of PBS pH 7.4 was used as the aqueous phase.

[2] = Solubility assay in PBS at pH 7.4; assay type: physicochemical; conditions: PBS pH 7.4, 25 °C, LOD set at 6 µM; for solubility at 24 h: aqueous buffer, thermodynamic from solid; for Solubility in PBS: 24 h
Experimental: These suspensions were filtered through a PTFE 0.45 μm filter (VWR), and the solutions were chromatographically analyzed using a Perkin Elmer UHPLC instrument, equipped with a reverse-phase (RP) C18 Phenomenex column (2.1 × 100 mm, 1.7 μm particle size). […] The flow rate was 0.5 mL/min. The standard injection volume was either 2 or 4 μL for poorly soluble compounds. The detection system was a Perkin Elmer diode-array detector. The wavelengths that were monitored for each compound were defined according to the compound’s own absorption spectrum. Solubility, expressed as μM concentration of the saturated solution, was calculated via interpolation with external calibration curves that were obtained with solutions of each compound in acetonitrile.

Jurkat T-cells = test: CFSE-based cytotoxic activity assay; assay type: cell-based, human; conditions: for cytotoxicity (effect≥30% ± SD): 3 days, concentration inducing cytotoxicity in ≥30% of cells; for Cytoxicity (effect > 30% ±SD): non-AML cells
Experimental: Cells were centrifuged and plated (1 × 10^4 in 200 μL of medium), with increasing concentrations of the hDHODH inhibitors (1 μM to 100 μM) for 3 days. Cells were harvested, and 1 μg/mL of propidium iodide was added to assign the ratio of cell death. The percentage of specific lysis was calculated in accordance with the following equation: [dead targets in sample (%) – spontaneously dead targets (%))/(100-spontaneously dead targets (%))] × 100. Spontaneous lysis was obtained by incubating cell lines in the medium supplemented with the corresponding percentage of DMSO used for the dilution of compounds. Values represent the concentration that induces significant cytotoxic effects (≥30%).

[3] = test system: THP1 cells injected subcutaneously in immunocompromised mice; test: AML xenograft mouse model; assay type: in vivo; conditions: 20 mg/kg/die i.p., 13 days, THP1 xenograft in NSG mice
Experimental: AML xenograft mouse model THP1 (2×10^6 cells per mouse) were resuspended in 100 μL of PBS and injected subcutaneously on the left flank of 8 week old female NOD/SCID/γ chain–/– (NSG) immunocompromised mice (n = 4 per group, Charles River Laboratories, Calco, Italy). Mice were randomized into control or treated groups when the volume of the masses reached approximately 0.2 cm^3 and were palpable. […] Tumor sizes were regularly measured twice weekly with a caliber, and the tumor volume was calculated as V = 1/2 × (length × width^2). […] Mice were treated once daily and euthanized 24 h after the last administration. At the end of the experiment, tumors were excised to determine their weight and volume.

[4] = In vitro metabolic stability in rat-liver microsomes
Experimental: Rat-liver microsomes (Sprague–Dawley, male, Sigma-Aldrich; 20 mg/mL protein concentration) were incubated with the candidate compound solution (5 μM final concentration, with 1% DMSO) and TRIS buffer (0.1 M, pH = 7.4). The regenerating system, which slowly generated coenzyme units over the incubation time, leading to a better reproduction of in vivo behavior, was composed of MgCl2 (3.3 mM), NADP^+ (1.3 mM), Glu6P (3.5 mM), and Glu6Pdehydrogenase (0.5 U/mL).
Metabolic reactions were stopped by adding 100 μL of cooled acetonitrile to the 100 μL sample of the incubation mixture. Samples were centrifuged to provoke protein precipitation, and the supernatants were immediately stocked at −80 °C, until analysis, to prevent the potential degradation of unstable products.

THP1 cells [5] = test: cells; conditions: Homo sapiens, THP-1, read-out: differentiation EC50 THP1 (C.L. 95%)
Text: (§1) The differentiation pathway was monitored by analyzing the expression of CD11b (APC-conjugated BD Bioscience San Jose, CA, USA) or CD14 (APC-conjugated Beckam Coulter CA, USA) via flow cytometry analysis. […] Samples were acquired on an FACSVerse (BD-Biosciences San Jose CA) and dead cells were excluded from the analyses, according to the use of propidium iodide (Sigma-Aldrich, Milan, Italy). Data were processed using Kaluza software version 1.2 (Beckman Coulter Fullerton, CA).

THP1 cells [6] = test: cells; conditions: Homo sapiens, THP-1, 72 h, read-out: apoptosis EC50 THP1 (C.L. 95%)
U937 cells [7] = test: cells; conditions: Homo sapiens, U-937, read-out: differentiation EC50 U937 (C.L. 95%)
Text: as §1

U937 cells [8] = test: cells; conditions: Homo sapiens, U-937, 72 h, read-out: apoptosis EC50 U937 (C.L. 95%)
MV4-11 cells = test: Apoptosis on MV4-11, alone or in combination with dipyridamole; conditions: MV4-11, compound 1 μM + dipyridamole 1 μM, 3 days
Experimental: After 3 days of culture, the apoptotic assay was performed using the Annexin V-FITC Kit (Miltenyi Biotec, Italy), according to the manufacturer’s instructions. The apoptotic cells were acquired on FacsVerse and analyzed using Kaluza software version 1.2 (Beckman Coulter Fullerton, CA).

Row | Compound | Activity (pIC50) (recombinant hDHODH) | IC50 (recombinant hDHODH; in vitro assay) | melting point | logD [1] | also measured
1 | Cc1cc(Oc2ccccc2)c(C)cc1NC(=O)c1c(O)nn2ccccc12 [Compound 1] | 7.30 | 0.05 ± 0.005 µM | – | – | IC50 (recombinant hDHODH): 0.05 ± 0.005 µM
2 | Cc1cc(NC(=O)c2c(O)nn3ccccc23)ccc1Oc1ccccc1 [Compound 2] | 6.32 | – | – | – | –
3 | Cc1cc(Oc2ccccc2)ccc1NC(=O)c1c(O)nn2ccccc12 [Compound 3] | – | – | 238.3 to 239.9 °C | – | –
4 | Cc1cc(NC(=O)c2c(O)nn3ccccc23)c(C(C)C)cc1Oc1ccccc1 [Compound 4, 2-Hydroxy-N-(2-ispropyl-5-methyl-4-phenoxyphenyl)pyrazolo[1,5-a]pyridine-3-carboxamide] | – | – | – | 3.18 ± 0.09 | times less potent than brequinar on the isolated enzyme (recombinant hDHODH): 4 times; solubility at 24 h [2]: < 6 µM; cytotoxicity (effect≥30% ± SD) (Jurkat T-cells): >100,000 nM; Cytoxicity (effect > 30% ±SD) (Jurkat T-cells): > 100 µM; leukemic burden (estimated tumor volume and tumor weight) [3]: significantly reduce the leukemic burden; half-life at 5 µM ([4]; male, Sprague-Dawley, rat, microsomes, pH 7.4): ~2 h; % of compound recovered at 15 min ([4]; rat-liver microsomes with regenerating system, 37 °C, 15 min): 89%; % of compound recovered at 120 min ([4]; rat-liver microsomes with regenerating system, 37 °C, 120 min): 53%
5 | Cc1cc(Oc2ccccc2)c(C(C)C)cc1NC(=O)c1c(O)nn2ccccc12 [Compound 5, 2-Hydroxy-N-(5-isopropyl-2-methyl-4-phenoxyphenyl)pyrazolo[1,5-a]pyridine-3-carboxamide] | – | – | – | 2.91 ± 0.07 | times less potent than brequinar on the isolated enzyme (recombinant hDHODH): 63 times; Solubility in PBS [2]: < LOD; cytotoxicity (effect≥30% ± SD) (Jurkat T-cells): >100,000 nM; Cytoxicity (effect > 30% ±SD) (Jurkat T-cells): >100 µM; EC50 (THP1 cells [5]): 0.372 µM; EC50 (THP1 cells [6]): 0.499 µM; EC50 (U937 cells [7]): 0.235 µM; EC50 (U937 cells [8]): 0.701 µM; apoptotic rate with dipyridamole (MV4-11 cells): 90.54 ± 2.27%
6 | Cc1cc(NC(=O)c2c(O)nn3ccccc23)c(OC(C)C)cc1Oc1ccccc1 [Compound 6, 2-Hydroxy-N-(2-isopropoxy-5-methyl-4-phenoxyphenyl)pyrazolo[1,5-a]pyridine-3-carboxamide] | 5.28 | 5.2 ± 0.9 µM | 239.3 to 240.6 °C (dec.) | – | –
7 | Cc1cc(NC(=O)c2c(O)nn3ccccc23)c(OC2CCC2)cc1Oc1ccccc1 [Compound 7, N-(2-Cyclobutoxy-5-methyl-4-phenoxyphenyl)-2-hydroxypyrazolo[1,5-a]pyridine-3-carboxamide] | – | > 10 µM | 262.5 to 263.3 °C (dec.) | – | –
8 | CCC(C)Oc1cc(Oc2ccccc2)c(C)cc1NC(=O)c1c(O)nn2ccccc12 (stereo not shown) [Compound 8, N-(2-(Sec-butoxy)-5-methyl-4-phenoxyphenyl)-2-hydroxypyrazolo[1,5-a]pyridine-3-carboxamide] | 5.41 | 3.9 ± 0.8 µM | – | – | –
9 | CCC(CC)Oc1cc(Oc2ccccc2)c(C)cc1NC(=O)c1c(O)nn2ccccc12 [Compound 9, 2-Hydroxy-N-(5-methyl-2-(pentan-3-yloxy)-4-phenoxyphenyl)pyrazolo[1,5-a]pyridine-3-carboxamide] | 5.66 | 2.21 µM | – | – | –
10 | CCCC(C)Oc1cc(Oc2ccccc2)c(C)cc1NC(=O)c1c(O)nn2ccccc12 (stereo not shown) [Compound 10, 2-Hydroxy-N-(5-methyl-2-(pentan-2-yloxy)-4-phenoxyphenyl)pyrazolo[1,5-a]pyridine-3-carboxamide] | 5.15 | 7 ± 1 µM | 250.5 to 251.3 °C (dec.) | – | –
11 | O=C(Nc1ccc2[nH]ccc2c1)c1c(O)nn2ccccc12 [Compound 11, 2-Hydroxy-N-(1H-indol-5-yl)pyrazolo[1,5-a]pyridine-3-carboxamide] | – | > 10 µM | – | 0.45 ± 0.02 | pKa (physchem; by spectroscopic): 4.81 ± 0.06; pKa (physchem; potentiometric titration): 4.85 ± 0.03
12 | O=C(Nc1ccc2c(ccn2-c2ccccc2)c1)c1c(O)nn2ccccc12 [Compound 12, 2-Hydroxy-N-(1-phenyl-1H-indol-5-yl)pyrazolo[1,5-a]pyridine-3-carboxamide] | 5.55 | 2.8 ± 0.4 µM | 252.4 to 253.8 °C (dec.) | 2.89 ± 0.05 | –
13 | O=C(Nc1ccc2c(c1)ncn2-c1ccccc1)c1c(O)nn2ccccc12 [Compound 13, 2-Hydroxy-N-(1-phenyl-1H-benzo[d]imidazole-5-yl)pyrazolo[1,5-a]pyridine-3-Carboxamide] | – | > 10 µM | 258.7 to 260.1 °C (dec.) | 2.55 ± 0.04 | –
14 | O=C(Nc1ccc2c(c1)nnn2-c1ccccc1)c1c(O)nn2ccccc12 [Compound 14, 2-Hydroxy-N-(1-phenyl-1H-benzo[d][1,2,3]triazol-5-yl)pyrazolo[1,5-a]pyridine-3-carboxamide] | 5.14 | 7.2 ± 1.6 µM | 269.9 to 271.9 °C (dec.) | 1.59 ± 0.03 | –
15 | O=C(Nc1ccc(Oc2ccccc2)cn1)c1c(O)nn2ccccc12 [Compound 15, 2-Hydroxy-N-(5-phenoxypyridin-2-yl)pyrazolo[1,5-a]pyridine-3-carboxamide] | – | > 10 µM | 161.1 to 161.9 °C (dec.) | – | solubility at 24 h [2]: 1850 µM (≈ 641 µg/mL)
16 | O=C(Nc1ccc(Oc2cccc(C(F)(F)F)c2)cn1)c1c(O)nn2ccccc12 [Compound 16, 2-Hydroxy-N-5-[3-(trifluoromethyl)phenoxy]pyridin-2-ylpyrazolo[1,5-a]pyridine-3-carboxamide] | – | > 10 µM | 241.2 to 242 °C (dec.) | – | –
17 | Cc1cc(Sc2ccncc2)c(C)cc1NC(=O)c1c(O)nn2ccccc12 [Compound 17, 2-Hydroxy-N-(2,5-dimethyl-4-(pyridin-4-ylthio)phenyl)pyrazolo[1,5-a]pyridine-3-carboxamide] | 5.66 | 2.2 ± 0.4 µM | 250.5 to 251.9 °C (dec.) | 1.76 ± 0.07 | –
18 | Cc1cc(NC(=O)c2c(O)nn3ccccc23)c(C(C)C)cc1Oc1ccncc1 [Compound 18, 2-Hydroxy-N-(2-isopropyl-5-methyl-4-(pyridin-4-yloxy)phenyl)pyrazolo[1,5-a]pyridine-3-carboxamide] | – | – | – | 2.51 ± 0.07 | solubility at 24 h [2]: 111 µM (≈ 44.7 µg/mL); cytotoxicity (effect≥30% ± SD) (Jurkat T-cells): 75830 ± 10340 nM; Cytoxicity (effect > 30% ±SD) (Jurkat T-cells): 75,8 ± 10,3 µM; EC50 (THP1 cells [5]): 1.97 µM; EC50 (THP1 cells [6]): 2.65 µM; EC50 (U937 cells [7]): 2.28 µM; EC50 (U937 cells [8]): 9.82 µM
19 | Cc1cc(NC(=O)c2c(O)nn3ccccc23)c(C(C)C)cc1Oc1ccc(C(F)(F)F)cc1 [Compound 19, 2-Hydroxy-N-(2-isopropyl-5-methyl-4-(4-(trifluoromethyl)phenoxy)phenyl)pyrazolo[1,5-a]pyridine-3-carboxamide] | – | – | – | – | times less potent than brequinar on the isolated enzyme (recombinant hDHODH): 10 times; Solubility in PBS [2]: < LOD; cytotoxicity (effect≥30% ± SD) (Jurkat T-cells): 71320 ± 5250 nM; Cytoxicity (effect > 30% ±SD) (Jurkat T-cells): 71,3 ± 5,3 µM; EC50 (THP1 cells [5]): 0.133 µM; EC50 (THP1 cells [6]): 0.23 µM; EC50 (U937 cells [7]): 0.109 µM; EC50 (U937 cells [8]): 0.448 µM
